As to `N#C/C(=N\Nc1cccc(O)c1)c1nc2ccccc2[nH]1`, the melting point turned out to be 238 °C.

`CCCCCCCCOC(=O)CC`: the melting point is -42.6 °C.

Consider `Oc1ccccc1/C=N/n1c(-c2ccccc2)n[nH]c1=S`, for which the melting point is 209 to 210 °C.

Compound `CC(C)OC(=O)NC(C(=O)NC(C)c1nc2ccc(F)cc2s1)C(C)C` (centres undefined) gave a melting point of 153 °C.

The compound `CC(=O)OCCOC(C)=O` came in with a melting point of -31 °C.

With `CCN(C#N)CC`, the melting point is -80.6 °C.

The compound `O=Cc1ccc(F)cc1Cl` displayed a melting point of 62 °C.

On to `O=C(O)c1ccc(Br)c(F)c1`, for which the melting point is 212 °C.

`CC(=O)NC1C(O)CC(O)(C(=O)O)OC1C(O)C(O)CO` (centres undefined): the melting point lay in the range of 184 to 186 °C.

Regarding `O=C(O)CCCCCl`, the melting point stood at 18 °C.

On to `O=[N+]([O-])c1cccc(-c2noc(CCl)n2)c1`, for which the melting point lay in the range of 60 to 62 °C.

`O=[N+]([O-])c1ccc(N2CCCNCC2)nc1` gave a melting point of 111 to 112 °C.

With `O=C(Cc1ccccc1)CC(c1ccco1)N1CCCCC1` (centres undefined), the melting point turned out to be 130 °C.

On to `COc1ccc(C(=O)C2=NOC3C(=O)N(c4ccc(F)cc4)C(=O)C23)cc1` (centres undefined), for which the melting point was 141 °C.

As for `Nc1ccc(Cl)c(Cl)c1Cl`, the melting point worked out at 73 °C.

In turn, `OCC1OC(OC2OC(CO)C(O)C(O)C2O)C(O)C(O)C1O` (centres undefined) returned a melting point of 203 °C.

`CCOC(=O)c1sc2sc(C#N)c(N)c2c1N` displayed a melting point of 260 °C.

On to `O=C1CCCc2occc21`, for which the melting point lay in the range of 60.5 to 61.5 °C.

Turning to `CC1(C)OC(=O)C(=Cc2ccc(-c3ccccc3[N+](=O)[O-])o2)C(=O)O1`, the melting point amounted to 153 °C.

`CC12CCC(O)CC1=CCC1C2CCC2(C)C1CCC2(O)C#CCl` (centres undefined) gave a melting point of 175 to 177 °C.

On to `Cc1nc(-c2ccncc2)sc1C(=O)O`, for which the melting point came to 305 °C.

Consider `Oc1ccc(F)nc1`, for which the melting point is 152 °C.

With `NNC(=O)c1ccc[nH]1`, the melting point is 232 to 235 °C.

Turning to `N#CCc1cccc(Cl)c1Cl`, the melting point was 66 to 69 °C.

Consider `CCC1(CC)OC(=O)C2CCC1(C)OC2(C)C` (centres undefined), for which the melting point amounted to 90 °C.

In turn, `COc1ccc(CC(=O)O)cc1` had a melting point of 87 °C.

As to `O=C(O)c1sc(-c2ccccc2)nc1-c1ccccc1`, the melting point lay within 212 to 216 °C.

The compound `CCC(=O)c1cccc(Br)c1` returned a melting point of 40 °C.

`CC1=Cc2ccccc2C1O` (centres undefined): the melting point stood at 87 °C.

As to `O=c1cccco1`, the melting point is 8.5 °C.

In turn, `O=Cc1cc(I)c(O)c(I)c1` yielded a melting point of 201 °C.

Regarding `O=c1[nH]cc(Cl)cc1Cl`, the melting point came out at 180 °C.

In turn, `Cc1cc(C)c(Cl)c(O)c1Cl` showed a melting point of 87.5 °C.

Turning to `Nc1nc(F)cc(C(F)(F)F)c1F`, the melting point amounted to 67 °C.

`O=C(O)c1ccc(NC(=O)C(Cc2ccc(O)cc2)NC(=O)c2ccccc2)cc1` (centres undefined) showed a melting point of 241 °C.

`O=C1c2ccccc2C(=O)N1CCOCCCl` showed a melting point of 72 to 73 °C.

`Cc1ccc2c3ccccc3c3ccccc3c2c1`: the melting point was found to be 100 °C.

Regarding `CCCCC(=O)OC1(C(=O)CO)CCC2C3CCC4=CC(=O)C=CC4(C)C3C(O)CC21C` (centres undefined), the melting point turned out to be 212 °C.

Compound `C=C1C(C)CCC2(C)C3=C(C(=O)C4(CC4C)C(O)C3=O)C(OC(C)=O)C(O)C12` (centres undefined) had a melting point of 195 to 196 °C.

`O=C1CCc2ccc(OCCCCN3CCN(c4cccc(Cl)c4Cl)CC3)cc2N1` yielded a melting point of 139 °C.

As to `CCCC(=O)Nc1ccccc1`, the melting point amounted to 97 °C.

Consider `CCCOC(=O)CCCCC(=O)OCCC`, for which the melting point was -15.7 °C.

For the compound `O=C(Oc1c(F)c(F)c(F)c(F)c1F)c1cccc(-c2nccs2)c1`, the melting point fell in the range of 68.5 to 69.5 °C.

On to `CN1C(=O)CN=C(c2ccccc2F)c2cc([N+](=O)[O-])ccc21`, for which the melting point was 166 °C.

On to `OCc1cnc(S)n1Cc1ccccc1`, for which the melting point is 238 to 240 °C.

Compound `O=[N+]([O-])c1ccc(Br)c(Cl)c1` displayed a melting point of 61 °C.

In turn, `BrCCC1CCCCC1` displayed a melting point of -57 °C.

Turning to `CC1CC(OC(=O)C(O)c2ccccc2)CC(C)(C)N1C` (centres undefined), the melting point turned out to be 113 °C.

`C1CCC(CCCCCC2CCCCC2)CC1` yielded a melting point of -13.6 °C.

`COC(=O)c1ccc([N+](=O)[O-])cc1Cl` displayed a melting point of 77 to 78 °C.

`O=[N+]([O-])c1ccc(S(=O)(=O)Cl)cc1Cl` registered a melting point of 38 °C.

`O=C(O)C(F)=Cc1ccccc1`: the melting point was found to be 158 °C.

In turn, `COc1ccc(C2C3=C(CC(C)(C)CC3=O)Nc3ccc4ccccc4c32)cc1` (centres undefined) showed a melting point of 288 °C.

In turn, `O=[N+]([O-])c1ccc(Sc2ccc(N=C=S)cc2)cc1` gave a melting point of 124 to 126 °C.

`COc1ccc(C(=O)Cl)cc1OC`: the melting point was 71 °C.

In the case of `O=Cc1ccc2nonc2c1`, the melting point worked out at 58 °C.

As for `COc1ccc(C2C(C#N)=C(N)Oc3c2c(C(F)(F)F)nn3-c2ccccc2)cc1` (centres undefined), the melting point came to 211 °C.

For the compound `CCNC(=O)C=C(C)C=CC=C(C)C=Cc1c(C)cc(OC)c(C)c1C`, the melting point came to 180 °C.

Turning to `S=C=Nc1ccc(Cl)cc1Cl`, the melting point came out at 38 °C.

In turn, `CCOc1ccc(Cc2nccc3cc(OCC)c(OCC)cc23)cc1OCC` gave a melting point of 100 °C.

Turning to `CCCCCCCCCCCCCC(=O)Cl`, the melting point was -1 °C.

The compound `CCN(CC)CCOC(=O)C(c1ccccc1)c1ccccc1` returned a melting point of 114 °C.

For `O=C(O)/C(=C/c1ccccc1)Cc1ccccc1`, the melting point lay within 157 to 158 °C.

With `Clc1ccc(Br)s1`, the melting point is -20 °C.

`Nc1nc2ccc([N+](=O)[O-])cc2s1`: the melting point was in the range of 247 to 249 °C.

For `Cc1[nH]c(C)c(C)c1C`, the melting point worked out at 111 °C.

`CCOC(=O)c1[nH]c2ccccc2c1C` gave a melting point of 130 to 133 °C.

As for `CSC(SC)=C(C#N)S(=O)(=O)C(C)C`, the melting point fell in the range of 88 to 91 °C.

In turn, `O=C(Cl)c1cncc(Br)c1` had a melting point of 84 to 86 °C.

In the case of `N#CC(c1ccc(Sc2ccccc2)nn1)c1c(Cl)cccc1Cl` (centres undefined), the melting point was found to be 190 °C.

Compound `CC(/C=C(\C)c1ccc(-c2ccccc2)cc1)=NNS(=O)(=O)c1ccc(C)cc1` gave a melting point of 132 to 134 °C.

On to `CC(=O)Oc1cn(C(C)=O)c2ccc(Br)cc12`, for which the melting point was 124 to 128 °C.

For the compound `O=C(Cc1cc(Cl)c([N+](=O)[O-])cc1[N+](=O)[O-])c1ccccc1`, the melting point is 133 °C.

Compound `CC(=O)c1ccc(C)cc1O` came in with a melting point of 21 °C.

`C1CCC(CCCCC2CCCCC2)CC1` showed a melting point of 12 °C.

The compound `Cc1cccc(/N=N/c2c(N)nn3c(C(F)(F)F)cc(=O)[nH]c23)c1` registered a melting point of 280 °C.

Take `O=C(C=Cc1ccco1)C=Cc1ccco1`: the melting point came out at 60.5 °C.

On to `Nc1nc(=O)c2[nH]c(=S)[nH]c2[nH]1`, for which the melting point was found to be 300 °C.

In the case of `Brc1ccc2c(c1)Oc1cc(Br)ccc1O2`, the melting point was found to be 145 °C.

Source of the values: a melting point compilation (Tetko et al.).
